Source: patent US20230091225A1, “Bifunctional chimeric heterocyclic compounds for targeted degradation of androgen receptors and use thereof” (HINOVA PHARMACEUTICALS INC., priority 2019, published 2023)
Like-named read-outs stand apart in the source and are kept apart here.

Target: T1, androgen receptor (AR) (Homo sapiens, UniProt P10275)
T1 sequence (P10275 1-920): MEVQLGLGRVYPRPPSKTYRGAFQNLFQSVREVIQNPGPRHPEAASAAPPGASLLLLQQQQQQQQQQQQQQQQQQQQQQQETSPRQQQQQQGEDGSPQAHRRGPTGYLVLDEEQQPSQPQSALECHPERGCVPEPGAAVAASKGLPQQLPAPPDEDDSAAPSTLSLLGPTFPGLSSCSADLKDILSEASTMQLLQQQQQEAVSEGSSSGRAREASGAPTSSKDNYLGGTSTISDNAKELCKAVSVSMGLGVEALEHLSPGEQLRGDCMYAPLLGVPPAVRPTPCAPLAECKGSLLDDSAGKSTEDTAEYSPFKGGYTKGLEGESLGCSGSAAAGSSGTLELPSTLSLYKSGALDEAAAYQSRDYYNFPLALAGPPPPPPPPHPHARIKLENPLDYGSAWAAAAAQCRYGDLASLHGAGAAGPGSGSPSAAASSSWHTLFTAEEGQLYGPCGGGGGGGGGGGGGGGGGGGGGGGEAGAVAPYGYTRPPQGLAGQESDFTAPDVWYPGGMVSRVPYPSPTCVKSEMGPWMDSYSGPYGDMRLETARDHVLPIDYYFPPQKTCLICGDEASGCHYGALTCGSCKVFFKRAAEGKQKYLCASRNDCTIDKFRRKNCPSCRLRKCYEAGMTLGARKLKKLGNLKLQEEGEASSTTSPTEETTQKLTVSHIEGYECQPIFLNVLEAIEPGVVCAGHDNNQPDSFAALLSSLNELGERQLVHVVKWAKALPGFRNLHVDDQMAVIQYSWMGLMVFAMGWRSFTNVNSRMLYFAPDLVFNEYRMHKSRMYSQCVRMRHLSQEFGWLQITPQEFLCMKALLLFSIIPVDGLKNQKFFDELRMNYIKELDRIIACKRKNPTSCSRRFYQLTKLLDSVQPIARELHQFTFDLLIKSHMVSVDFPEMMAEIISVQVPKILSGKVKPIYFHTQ
Test: Degradation of androgen receptor (AR) protein in VCaP cells by ELISA
Format: cell-based
Conditions: for Dmax: VCaP; for inhibition at 0.1 µM: percentage of degraded AR at 100 nM, read-out: % degradation

[1] = AR degradation, VCaP cells, 16 h, ELISA, Table 3-1, read-out: DC50
[2] = AR degradation, VCaP cells, 16 h, ELISA, Table 3-1, read-out: Dmax (%)

`N#Cc1ccc(O[C@H]2CC[C@H](NC(=O)c3cnc(N4CCC5(CN(CC6CCN(c7cc8c(cc7F)C(=O)N(C7CCC(=O)NC7=O)C8=O)CC6)C5)C4)cn3)CC2)cc1Cl` (stereo partly drawn) [Compound 189, N-((1r,4r)-4-(3-chloro-4-cyanophenoxy)cyclohexyl)-5-(2-((1-(2-(2,6-dioxopiperidin-3-yl)-6-fluoro-1,3-dioxoisoindolin-5-yl)piperidine-4-yl)methyl)-2,6-diazaspiro[3.4]octan-6-yl)pyrazine-2-carboxamide] was tested, and the DC50 [1] was < 10 nM and the Dmax [2] was > 80%.
For `N#Cc1ccc(O[C@H]2CC[C@H](NC(=O)c3ccc(N4CCC5(CC4)CN(CC4CCN(c6ccc7c(c6)C(=O)N(C6CCC(=O)NC6=O)C7=O)CC4)C5)nn3)CC2)cc1Cl` (stereo partly drawn) [Compound 190, N-((1r,4r)-4-(3-chloro-4-cyanophenoxy)cyclohexyl)-6-(2-((1-(2-(2,6-dioxopiperidin-3-yl)-1,3-dioxoisoindolin-5-yl)piperidine-4-yl)methyl)-2,7-diazaspiro[3.5]nonan-7-yl)pyridazine-3-formamide], the DC50 [1] was < 10 nM and the Dmax [2] was > 80%.
In the case of `N#Cc1ccc(O[C@H]2CC[C@H](NC(=O)c3ccc(N4CCC(CN5CCC6(CC5)CN(c5cc7c(cc5F)C(=O)N(C5CCC(=O)NC5=O)C7=O)C6)CC4)cc3)CC2)cc1Cl` (stereo partly drawn) [Compound 191, N-((1r,4r)-4-(3-chloro-4-cyanophenoxy)cyclohexyl)-4-(4-((2-(2-(2,6-dioxopiperidin-3-yl)-6-fluoro-1,3-dioxoisoindolin-5-yl)-2,7-diazaspiro[3.5]nonan-7-yl)methyl)piperidin-1-yl)benzamide], the DC50 [1] is reported as < 10 nM and the Dmax [2] is reported as > 80%.
In the case of `N#Cc1ccc(O[C@H]2CC[C@H](NC(=O)c3ccc(N4CCC(CN5CCC6(CC5)CN(c5ccc7c(c5)C(=O)N(C5CCC(=O)NC5=O)C7=O)C6)CC4)cc3)CC2)cc1Cl` (stereo partly drawn) [Compound 192], the DC50 [1] is reported as < 10 nM and the Dmax [2] is reported as > 80%.
With `N#Cc1ccc(O[C@H]2CC[C@H](NC(=O)c3nnc(N4CC5(CCN(C6CCN(c7ccc8c(c7)C(=O)N(C7CCC(=O)NC7=O)C8=O)CC6)CC5)C4)s3)CC2)cc1Cl` (stereo partly drawn) [Compound 193, N-((1r,4r)-4-(3-chloro-4-cyanophenoxy)cyclohexyl)-5-(7-(1-(2-(2,6-dioxopiperidin-3-yl)-1,3-dioxoisoindolin-5-yl)piperidine-4-yl)-2,7-diazaspiro[3.5]nonan-2-yl)-1,3,4-thiadiazole-2-carboxamide] the DC50 [1] was < 10 nM and the Dmax [2] was > 80%.
With `N#Cc1ccc(O[C@H]2CC[C@H](NC(=O)c3ccc(N4CC5(CCN(CC6CCN(c7ccc8c(c7)C(=O)N(C7CCC(=O)NC7=O)C8=O)CC6)CC5)C4)cc3)CC2)cc1Cl` (stereo partly drawn) [Compound 194, N-((1r,4r)-4-(3-chloro-4-cyanophenoxy)cyclohexyl)-4-(7-((1-(2-(2,6-dioxopiperidin-3-yl)-1,3-dioxoisoindolin-5-yl)piperidine-4-yl)methyl)-2,7-diazaspiro[3.5]nonan-2-yl)benzamide] the DC50 [1] was < 10 nM and the Dmax [2] was > 80%.
In the case of `N#Cc1ccc(OC2CCC(NC(=O)c3ccc(N4CCC(CN5CCC6(CC5)CN(c5ccc7c(c5)CN(C5CCC(=O)NC5=O)C7=O)C6)CC4)nn3)CC2)cc1Cl` (stereo not drawn) [Compound 196, N-((1r,4r)-4-(3-chloro-4-cyanophenoxy)cyclohexyl)-6-(4-((2-(2-(2,6-dioxopiperidin-3-yl)-1-oxoisoindolin-5-yl)-2,7-diazaspiro[3.5]nonan-7-yl)methyl)piperidin-1-yl)pyridazine-3-formamide], the “Dmax (%)” value (AR degradation, VCaP cells, 16 h, ELISA, Table 3-1) is reported as “++++ (>80%)” and the DC50 [1] is reported as < 10 nM.
`[2H]C([2H])([2H])Oc1cc(O[C@H]2CC[C@H](NC(=O)c3cnc(N4CCC(CN5CCC6(CC5)CN(c5ccc7c(c5)C(=O)N(C5CCC(=O)NC5=O)C7=O)C6)CC4)nn3)CC2)ccc1C#N` (stereo partly drawn) [Compound 197, N-((1r,4r)-4-(4-cyano-3-(methoxy-d3)phenoxy)cyclohexyl)-3-(4-((2-(2-(2,6-dioxopiperidin-3-yl)-1,3-dioxoisoindolin-5-yl)-2,7-diazaspiro[3.5]nonan-7-yl)methyl)piperidin-1-yl)-1,2,4-triazine-6-carboxamide] was tested, and the inhibition at 0.1 µM (VCaP cells, 16 h, ELISA) was > 80%.
Compound `CC1(C)[C@H](Oc2ccc(C#N)c(Cl)c2)C(C)(C)[C@H]1N1Cc2nc(N3CCC(CN4CCN(c5cc6c(cc5F)C(=O)N(C5CCC(=O)NC5=O)C6)CC4)CC3)ccc2C1=O` (stereo partly drawn) [Compound 206] has an inhibition at 0.1 µM (VCaP cells, 16 h, ELISA) of 25 to 49%.
In the case of `CC1(C)C(Oc2ccc(C#N)c(Cl)c2)C(C)(C)C1N1Cc2nc(N3CCC(CN4CCN(c5cc6c(cc5F)C(=O)N([C@@H]5CCC(=O)NC5=O)C6)CC4)CC3)ccc2C1=O` (stereo partly drawn) [Compound 212], the “% degradation” value is reported as “C (key: A: >80%; B: 79%-50%; C: 49%-25%; D: <25%)”.
`N#Cc1ccc(O[C@H]2CC[C@H](NC(=O)c3cnc(N4CCC(CN5CCC6(CC5)CN(c5cc7c(cc5F)C(=O)N(C5CCC(=O)NC5=O)C7=O)C6)CC4)cn3)CC2)cc1Cl` (stereo partly drawn) [Compound 233] was tested, and the DC50 [1] was < 10 nM and the Dmax [2] was > 80%.
In the case of `N#Cc1ccc(OC2CCC(NC(=O)c3cnc(N4CCC(CN5CC6(CCN(c7cc8c(cc7F)C(=O)N(C7CCC(=O)NC7=O)C8=O)CC6)C5)CC4)cn3)CC2)cc1Cl` (stereo not drawn) [Compound 234, N-((1r,4r)-4-(3-chloro-4-cyanophenoxy)cyclohexyl)-5-(4-((7-(2,6-dioxopiperidin-3-yl)-6-fluoro-1,3-dioxoisoindolin-5-yl)-2,7-diazaspiro[3.5]nonan-2-yl)methyl)piperidin-1-yl)pyrazine-2-carboxamide], the DC50 [1] is reported as < 10 nM and the Dmax [2] is reported as > 80%.
In the case of `N#Cc1ccc(OC2CCC(NC(=O)c3cnc(N4CC5(CCN(CC6CCN(c7cc8c(cc7F)C(=O)N(C7CCC(=O)NC7=O)C8=O)CC6)CC5)C4)cn3)CC2)cc1Cl` (stereo not drawn) [Compound 235, N-((1r,4r)-4-(3-chloro-4-cyanophenoxy)cyclohexyl)-5-(7-((1-(2-(2,6-dioxopiperidin-3-yl)-6-fluoro-1,3-dioxoisoindolin-5-yl)piperidine-4-yl)methyl)-2,7-diazaspiro[3.5]nonan-2-yl)pyrazine-2-carboxamide], the DC50 [1] is reported as < 10 nM and the Dmax [2] is reported as > 80%.
For `N#Cc1ccc(O[C@H]2CC[C@H](NC(=O)c3cnc(N4CCC(N5CC6(CCN(c7cc8c(cc7F)C(=O)N(C7CCC(=O)NC7=O)C8=O)CC6)C5)CC4)cn3)CC2)cc1C(F)(F)F` (stereo partly drawn) [Compound 236, N-((1r,4r)-4-(4-cyano-3-(trifluoromethyl)phenoxy)cyclohexyl)-5-(4-(7-(2-(2,6-dioxopiperidin-3-yl)-6-fluoro-1,3-dioxoisoindolin-5-yl)-2,7-diazaspiro[3.5]nonan-2-yl)piperidin-1-yl)pyrazine-2-carboxamide], the DC50 [1] was < 10 nM and the Dmax [2] was > 80%.
`N#Cc1ccc(O[C@H]2CC[C@H](NC(=O)c3ccc(N4CC5CC4CN5C[C@H]4[C@@H]5CN(c6cc7c(cc6F)C(=O)N(C6CCC(=O)NC6=O)C7=O)C[C@@H]54)nn3)CC2)cc1Cl` (stereo partly drawn) [Compound 237] gave a DC50 [1] of 100 to 300 nM and a Dmax [2] of 40 to 60%.
`N#Cc1ccc(O[C@H]2CC[C@H](NC(=O)c3cnc(N4CC5CC4CN5C[C@H]4[C@@H]5CN(c6cc7c(cc6F)C(=O)N(C6CCC(=O)NC6=O)C7=O)C[C@@H]54)cn3)CC2)cc1Cl` (stereo partly drawn) [Compound 238] was tested, and the DC50 [1] was 10 to 100 nM and the Dmax [2] was 40 to 60%.
Work on `N#Cc1ccc(O[C@H]2CC[C@H](NC(=O)c3ccc(N4C[C@H]5CC[C@@H](C4)N5C[C@H]4[C@@H]5CN(c6cc7c(cc6F)C(=O)N(C6CCC(=O)NC6=O)C7=O)C[C@@H]54)nn3)CC2)cc1Cl` (stereo partly drawn) [Compound 239] yielded a DC50 of 10 to 100 nM and a Dmax of 60 to 80%.
`N#Cc1ccc(OC2CCC(NC(=O)c3cnc(N4C[C@H]5CC[C@@H](C4)N5C[C@H]4[C@@H]5CN(c6cc7c(cc6F)C(=O)N(C6CCC(=O)NC6=O)C7=O)C[C@@H]54)cn3)CC2)cc1Cl` (stereo partly drawn) [Compound 240] was tested, and the DC50 was 10 to 100 nM and the Dmax was 60 to 80%.
